From patent US5710274A, “N-aminoalkyldibenzofurancarboxamides; new dopamine receptor subtype specific ligands” (Neurogen Corporation, priority 1996, dated 1998)
Structures can show the parent of a compound that is named as a salt.

How the values were obtained:
D3 receptors = target: T1, D3 receptors (Chlorocebus aethiops, UniProt P52703); assay: D3 receptor binding, displacement of 3H-YM 09151-2; parameters: species or system African Green monkey; conditions: recombinant receptors in COS cell pellets; 0.5 nM 3H-YM 09151-2; 48° C; pH 7.4
T1 construct: expressed in transfected cells; host or cells: COS cells
T1 sequence (P52703 whole entry): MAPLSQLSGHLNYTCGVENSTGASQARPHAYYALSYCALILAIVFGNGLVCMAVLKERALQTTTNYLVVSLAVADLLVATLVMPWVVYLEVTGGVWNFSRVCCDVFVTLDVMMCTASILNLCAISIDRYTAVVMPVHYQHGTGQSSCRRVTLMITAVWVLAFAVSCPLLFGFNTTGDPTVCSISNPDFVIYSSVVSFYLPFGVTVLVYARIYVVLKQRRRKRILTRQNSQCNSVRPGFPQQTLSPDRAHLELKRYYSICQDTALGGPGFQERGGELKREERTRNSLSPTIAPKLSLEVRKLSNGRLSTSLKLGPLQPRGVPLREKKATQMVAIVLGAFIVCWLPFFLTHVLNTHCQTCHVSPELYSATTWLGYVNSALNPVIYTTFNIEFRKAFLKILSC
Experimental: (§1) Pellets of COS cells containing recombinantly produced D2 or D3 receptors from African Green monkey were used for the assays. The sample is homogenized in 100 volumes (w/vol) of 0.05M Tris HCl buffer at 4° C. and pH 7.4. The sample is then centrifuged at 30,000×g and resuspended and rehomogenized. The sample is then centrifuged as described and the final tissue sample is frozen until use. The tissue is resuspended 1:20 (wt/vol) in 0.05M Tris HCl buffer containing 100 mM NaCl.
(§2) Incubations are carried out at 48° C. and contain 0.4 ml of tissue sample, 0.5 nM ^3 H-YM 09151-2 and the compound of interest in a total incubation of 1.0 ml. Nonspecific binding is defined as that binding found in the presence of […] spiperone; without further additions, nonspecific binding is less than 20% of total binding. The binding characteristics of representative compounds of the invention for D2 and D3 receptor subtypes are shown in Table 2 for rat striatal homogenates.

D2 receptors = target: T2, D2 receptors (Chlorocebus aethiops, UniProt P52702); assay: D2 receptor binding, displacement of 3H-YM 09151-2; parameters: species or system African Green monkey; conditions: recombinant receptors in COS cell pellets; 0.5 nM 3H-YM 09151-2; 48° C; pH 7.4
T2 construct: expressed in transfected cells; host or cells: COS cells
T2 sequence (P52702 whole entry): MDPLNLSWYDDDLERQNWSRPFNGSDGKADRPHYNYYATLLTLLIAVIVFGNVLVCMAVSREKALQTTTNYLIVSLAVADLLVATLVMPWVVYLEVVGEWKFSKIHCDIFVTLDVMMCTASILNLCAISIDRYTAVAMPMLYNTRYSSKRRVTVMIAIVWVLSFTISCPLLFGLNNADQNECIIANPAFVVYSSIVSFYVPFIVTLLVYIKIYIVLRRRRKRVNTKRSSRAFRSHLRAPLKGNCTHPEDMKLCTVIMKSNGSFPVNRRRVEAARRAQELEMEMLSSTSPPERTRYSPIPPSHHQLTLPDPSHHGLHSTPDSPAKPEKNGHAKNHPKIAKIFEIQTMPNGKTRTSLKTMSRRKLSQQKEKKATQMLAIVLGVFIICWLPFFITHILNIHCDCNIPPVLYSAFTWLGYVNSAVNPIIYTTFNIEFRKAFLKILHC
Experimental: as §1, §2

Ki (D3 receptors) [nM]	Ki (D2 receptors) [nM]	Compound
1	157	O=C(NCCCCN1CCN(c2cccc(Cl)c2Cl)CC1)c1ccc2oc3ccccc3c2c1 [Compound 1, N-(1-{4-[4-(2,3-Dichlorophenyl)piperazin-1-yl]}butyl)-2-dibenzofurancarboxamide hydrochloride]
1.3	201	O=C(NCCCCN1CCN(c2cccc3ccccc23)CC1)c1ccc2oc3ccccc3c2c1 [Compound 2, N-(1-{4-[4-(1-Naphthyl)piperazin-1-yl]}butyl)-2-dibenzofurancarboxamide hydrochloride]
